Target: T1, human Ox2R (Homo sapiens, UniProt O43614)
T1 construct: The gene encoding hOx2R was subcloned into the expression plasmid pcDNA5/FRT/TO; expressed in transfected cells; host or cells: CHO Flp-In cells (pcDNA5/FRT/TO with pOG44 Flp recombinase vector, hygromycin B selection)
T1 sequence (O43614 1-444): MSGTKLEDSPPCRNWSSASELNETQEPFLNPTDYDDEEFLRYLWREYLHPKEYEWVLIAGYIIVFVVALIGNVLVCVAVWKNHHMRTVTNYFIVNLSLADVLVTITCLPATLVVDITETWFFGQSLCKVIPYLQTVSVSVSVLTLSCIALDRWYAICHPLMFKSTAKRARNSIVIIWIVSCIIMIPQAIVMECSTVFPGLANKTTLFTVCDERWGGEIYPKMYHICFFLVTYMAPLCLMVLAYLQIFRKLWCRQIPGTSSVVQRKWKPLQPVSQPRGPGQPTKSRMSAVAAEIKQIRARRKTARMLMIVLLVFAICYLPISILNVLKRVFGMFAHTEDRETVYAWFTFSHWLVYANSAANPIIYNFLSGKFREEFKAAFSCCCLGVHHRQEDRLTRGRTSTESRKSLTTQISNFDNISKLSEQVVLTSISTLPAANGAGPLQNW
Assay: Measurement of OX2R agonist activity (cell-based calcium release assay)
Details: hOx2R-CHO Flp-In cells, n≥2 tests; for EC50: intracellular calcium, read-out: EC50; for Emax (%) / Emax: normalized to assay buffer (0%) and 10 μM Danavorexton (100%); for Emax: read-out: Emax (%)
Method in brief: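 CHO Flp-In cells stably expressing human Ox2R, dye-loaded 1 h at 37 °C in HBSS/20 mM HEPES pH 7.4 with 2.5 mM probenecid and 10 mM CaCl2, then stimulated with compound.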

Molecule | EC50 [nM] | Emax [%] | Emax (%)
C[C@H]1C[C@H](NS(C)(=O)=O)C[C@]12Cc1ccc(F)c(c1)-c1cccc(F)c1OCc1coc2n1 [Example 60, N-[(1′S,4′S,14R)-6,19-difluoro-4′-methyl-spiro[8,12-dioxa-21-azatetracyclo[14.3.1.110,13.02,7]henicosa-1(19),2,4,6,10,13(21),16(20),17-octaene-14,3′-cyclopentane]-1′-yl]methanesulfonamide or N-[(1′R,4′R,14S)-6,19-difluoro-4′-methyl-spiro[8,12-dioxa-21-azatetracyclo[14.3.1.110,13.02,7]henicosa-1(19),2,4,6,10,13(21),16(20),17-octaene-14,3′-cyclopentane]-1′-yl]methanesulfonamide] | 0.33 | – | 100
CS(=O)(=O)N[C@H]1CC[C@@]2(Cc3ccc(C(F)(F)F)c(c3)-c3ccccc3OCc3coc2n3)C1 [Example 24, N-[(1′S,14R)-19-(trifluoromethyl)spiro[8,12-dioxa-21-azatetracyclo[14.3.1.110,13.02,7]henicosa-1(19),2,4,6,10,13(21),16(20),17-octaene-14,3′-cyclopentane]-1′-yl]methanesulfonamide] | 5.2 | 98 | –
[2H]C1([2H])Oc2ccccc2-c2cc(ccc2F)C[C@@]2(CC[C@H](NS(C)(=O)=O)C2)c2nc1co2 [Example 5, N-[(1′S,14R)-9,9-dideuterio-19-fluoro-spiro[8,12-dioxa-21-azatetracyclo[14.3.1.110,13.02,7]henicosa-1(19),2,4,6,10,13(21),16(20),17-octaene-14,3′-cyclopentane]-1′-yl]methanesulfonamide] | 0.36 | 100 | –
CS(=O)(=O)N[C@H]1CC[C@@]2(Cc3ccc(F)c(c3)-c3ccc(F)c(F)c3OCc3coc2n3)C1 [Example 14, N-[(1′S,14R)-5,6,19-trifluorospiro[8,12-dioxa-21-azatetracyclo[14.3.1.110,13.02,7]henicosa-1(19),2,4,6,10,13(21),16(20),17-octaene-14,3′-cyclopentane]-1′-yl]methanesulfonamide] | 0.62 | 97 | –
CS(=O)(=O)N[C@H]1CC[C@@]2(Cc3ccc(Cl)c(c3)-c3ccc(F)c(F)c3OCc3coc2n3)C1 [Example 31, N-[(1′S,14R)-19-chloro-5,6-difluoro-spiro[8,12-dioxa-21-azatetracyclo[14.3.1.110,13.02,7]henicosa-1(19),2,4,6,10,13(21),16(20),17-octaene-14,3′-cyclopentane]-1′-yl]methanesulfonamide] | 0.48 | 96 | –
CS(=O)(=O)N[C@H]1CC[C@@]2(Cc3cccc(c3)-c3ccccc3OCc3coc2n3)C1 [Example 38, N-[(1′S,14R)-spiro[8,12-dioxa-21-azatetracyclo[14.3.1.110,13.02,7]henicosa-1(20),2,4,6,10,13(21),16,18-octaene-14,3′-cyclopentane]-1′-yl]methanesulfonamide] | 4.3 | 99 | –
N-[(3′R,14S)-6,17,19-trifluorospiro[8,12-dioxa-21-azatetracyclo[14.3.1.110,13.02,7]henicosa-1(19),2,4,6,10,13(21),16(20),17-octaene-1′,5′-tetrahydrofuran′-3′-yl]methanesulfonamide or N-[(3′S,14R)-6,17,19-trifluorospiro[8,12-dioxa-21-azatetracyclo[14.3.1.110,13.02,7]henicosa-1(19),2,4,6,10,13(21),16(20),17-octaene-1′,5′-tetrahydrofuran′-3′-yl]methanesulfonamide [Example 110] | 0.32 | – | 96
C[C@H]1C[C@H](NS(C)(=O)=O)C[C@]12Cc1ccc(F)c(c1)-c1cccc(F)c1OCc1coc2n1 [Example 61, N-[(1′S,4′S,14R)-6,19-difluoro-4′-methyl-spiro[8,12-dioxa-21-azatetracyclo[14.3.1.110,13.02,7]henicosa-1(19),2,4,6,10,13(21),16(20),17-octaene-14,3′-cyclopentane]-1′-yl]methanesulfonamide or N-[(1′R,4′R,14S)-6,19-difluoro-4′-methyl-spiro[8,12-dioxa-21-azatetracyclo[14.3.1.110,13.02,7]henicosa-1(19),2,4,6,10,13(21),16(20),17-octaene-14,3′-cyclopentane]-1′-yl]methanesulfonamide] | 140 | – | 96
CN(C)S(=O)(=O)N[C@H]1CC[C@@]2(Cc3ccc(F)c(c3)-c3ccccc3OCc3coc2n3)C1 [Example 13, (3′S,14R)-3′-(dimethylsulfamoylamino)-19-fluoro-spiro[8,12-dioxa-21-azatetracyclo[14.3.1.110,13.02,7]henicosa-1(19),2,4,6,10,13(21),16(20),17-octaene-14,1′-cyclopentane]] | 0.28 | 95 | –

More lines, main results first:

EC50 [nM] | Emax [%] | Molecule | Emax (%)
3 | 100 | CS(=O)(=O)N[C@H]1CC[C@@]2(CO[C@H]3CC[C@H](CC3)c3ccccc3OCc3noc2n3)C1 [Example 64, N-[(1s,1′S,14R,17s)-spiro[8,12,16-trioxa-11,22-diazatetracyclo[15.2.2.110,13.02,7]docosa-2,4,6,10,13(22)-pentaene-14,3′-cyclopentane]-1′-yl]methanesulfonamide] | –
0.94 | 98 | CS(=O)(=O)N[C@H]1CC[C@@]2(CO[C@H]3CC[C@H](CC3)c3cccc(c3)OCc3cnc2o3)C1 [Example 73, N-[(1s,1′S,13S,16s)-spiro[7,15,21-trioxa-11-azatetracyclo[14.2.2.12,6.19,12]docosa-2,4,6(22),9,11-pentaene-13,3′-cyclopentane]-1′-yl]methanesulfonamide] | –
0.14 | 99 | CS(=O)(=O)N[C@H]1CC[C@@]2(Cc3ccc(F)c(c3)-c3cccc(F)c3OCc3csc2n3)C1 [Example 46, N-[(1′S,14R)-6,19-difluorospiro[8-oxa-12-thia-21-azatetracyclo[14.3.1.110,13.02,7]henicosa-1(19),2,4,6,10,13(21),16(20),17-octaene-14,3′-cyclopentane]-1′-yl]methanesulfonamide] | –
1.3 | 94 | CS(=O)(=O)N[C@H]1CC[C@@]2(Cc3ccc(F)c(c3)-c3cccc(F)c3OCc3noc2n3)C1 [Example 112, N-[(1′S,14R)-6,19-difluorospiro[8,12-dioxa-11,21-diazatetracyclo[14.3.1.110,13.02,7]henicosa-1(20),2,4,6,10,13(21),16,18-octaene-14,3′-cyclopentane]-1′-yl]methanesulfonamide] | –
20 | 100 | O=S(=O)(N[C@H]1CC[C@@]2(Cc3cccc(c3)-c3cccc(F)c3OCc3coc2n3)C1)C1CCOC1 (stereo partly drawn) [Example 79, N-[(1′S,14R)-6-fluorospiro[8,12-dioxa-21-azatetracyclo[14.3.1.110,13.02,7]henicosa-1(19),2,4,6,10,13(21),16(20),17-octaene-14,3′-cyclopentane]-1′-yl]tetrahydrofuran-3-sulfonamide] | –
8.6 | 96 | CS(=O)(=O)N[C@H]1CC[C@@]2(Cc3cccc(c3)-c3cccc(n3)OCc3coc2n3)C1 [Example 47, N-[(1′S,13R)-spiro[7,11-dioxa-20,21-diazatetracyclo[13.3.1.12,6.19,12]henicosa-1(19),2,4,6(21),9,12(20),15,17-octaene-13,3′-cyclopentane]-1′-yl]methanesulfonamide] | –
2.1 | 110 | Cc1nc2c(s1)-c1cc(ccc1F)C[C@@]1(CC[C@H](NS(C)(=O)=O)C1)c1nc(co1)CO2 [Example 102, N-[(1′S,13R)-18-fluoro-4-methyl-spiro[7,11-dioxa-3-thia-5,20-diazatetracyclo[13.3.1.19,12.02,6]icosa-1(18),2(6),4,9,12(20),15(19),16-heptaene-13,3′-cyclopentane]-1′-yl]methanesulfonamide] | –
0.19 | 98 | CS(=O)(=O)N[C@H]1CC[C@@]2(CO[C@H]3CC[C@H](CC3)c3cccc(c3)OCc3coc2n3)C1 [Example 41, N-[(1s,1′S,13S,16s)-spiro[7,11,15-trioxa-21-azatetracyclo[14.2.2.12,6.19,12]docosa-2,4,6(22),9,12(21)-pentaene-13,3′-cyclopentane]-1′-yl]methanesulfonamide] | –
0.1 | 100 | CS(=O)(=O)N[C@@H]1C[C@]2(Cc3ccc(F)c(c3)-c3cccc(F)c3OCc3ccnc2n3)[C@H]2C[C@@H]12 [Example 118, N-[(1′R,2′R,5′S,15R)-6,20-difluorospiro[8-oxa-13,22-diazatetracyclo[15.3.1.110,14.02,7]docosa-1(21),2,4,6,10,12,14(22),17,19-nonaene-15,4′-bicyclo[3.1.0]hexane]-2′-yl]methanesulfonamide] | –
0.67 | 96 | CS(=O)(=O)N[C@H]1CC[C@@]2(Cc3cc(c(F)cc3F)-c3cccc(F)c3OCc3cc(=O)[nH]c2n3)C1 [Example 101, N-[(1′S,15R)-6,18,20-trifluoro-12-oxo-spiro[8-oxa-13,22-diazatetracyclo[15.3.1.110,14.02,7]docosa-1(20),2(7),3,5,10,14(22),17(21),18-octaene-15,3′-cyclopentane]-1′-yl]methanesulfonamide] | –

From US12590106B2, “Spiromacrocyclic orexin 2 receptor agonists” (H. Lundbeck A/S, priority 2023, dated 2026)
